Where two headings read alike, the source gives them in different places.
Experiment: Lung-tissue pharmacokinetics of PG–OJ components in tumor-bearing mice (UPLC–MS/MS)
Assay type: in vivo, BALB/c nude male mice
Settings: for MRT last: read-out: MRT(0–t) (converted)
Description: This study employed Ultra-Performance Liquid Chromatography–Mass Spectrometry (UPLC–MS/MS) to examine the pharmacokinetic properties of 20 bioactive components in a cell-derived xenograft (CDX) model following oral administration of a 10.2 g/kg PG–OJ extract.
Healthy BALB/c nude male mice (weight: 18–21 g) were purchased from Beijing Huafukang Biotechnology Co., Ltd. (Beijing, China, License Number: SCXK (Jing) 2021-0006). After 3 days of acclimatization, the mice were randomly divided into the control group (CG), model group (MG), and the combined-administration group of P. ginseng and O. japonicus (HM1-HM13) ([…], four-fold clinical-equivalent doses). Subsequently, except for the CG, 0.2 mL (approximately 2 × 10^7 cells) of A549 cell suspension was aspirated with a 1 mL syringe and injected into the right axillary fossa of the model group and drug-administration-group mice. The control-group mice were injected with an equal volume of PBS at the same location. The tumor diameter was measured daily using a caliper. The model was successful when the tumor diameter > 3 mm. The combined-administration group of P. ginseng and O. japonicus was given the corresponding drug orally, once a day, with 0.2 mL/mouse each time. The control group and the model group mice were given the same volume of distilled water, continuously orally for 21 days. During this period, the body weight and tumor volume of the mice were recorded. At the end of the last administration, the mice were […] 0.083, 0.167, 0.25, 0.5, 0.75, 1, 2, 3, 4, 6, 8, 12, 24 h later. After injecting 0.1% pentobarbital sodium, blood was collected from the eye-socket vein, the mice were decapitated, and the tumor and lung tissues were carefully removed.
After homogenizing 50 mg of right-lung-tissue sample, 2 mL of acetonitrile was added to precipitate proteins. The mixture was oscillated for 2 min and then centrifuged for 10 min (12,000 rpm, 4 °C). The supernatant from the new centrifuge tube was collected and dried with nitrogen at room temperature. Finally, the supernatant was redissolved in 50 μL of acetonitrile solution containing 0.1% formic acid. After oscillating for 1 min, another centrifugation step was performed, and the resulting supernatant was used for analysis.
Samples were analyzed on the Vanquish UPLC System (Thermo, Waltham, MA, USA). The Agilent C18 column (4.6 × 150 mm, 4 μm, PN:693970-902T) was selected. The mobile phase was composed of 0.1% formic acid aqueous solution (A) and 0.1% formic acid acetonitrile solution (B). The procedure of gradient elution was as follows: 0–10 min, 95–75% A; 10–25 min, 75–45% A; 25–40 min, 45–30% A; 40–50 min, 30–5% A; 55–55.1 min, 5–95% A; 55.1–60 min, 95% A. The column temperature was set to 30 °C with the flow rate of 0.3 mL/min and the injection volume of 3.0 μL. The mass-spectrometry detection with negative-ion mode was carried out using an Orbitrap Exploris 120 Mass Spectrometer (Thermo, Waltham, MA, USA) and Electrospray ionization (ESI). The sheath-gas-flow rate was […] and the auxiliary-gas-flow rate was […]. The capillary temperature was 325 °C, and the resolution was 120,000 in full scan mode with the mass scan range of 80~1500 m/z. The secondary cracking was performed with HCD at a collision voltage of 30 eV, and unnecessary MS/MS information was removed using the dynamic exclusion method.

[1] = male, BALB/c nude, mouse, in vivo, po
[2] = male, BALB/c nude, mouse, in vivo, po, Tmax
[3] = lung tissue, A549 tumor-bearing mice, intragastric PG–OJ extract 10.2 g/kg (6.8 g/kg elsewhere in the source), mean ± SD, n = 6
[4] = lung tissue, oral PG–OJ extract, in words
[5] = male, BALB/c nude, mouse, lung tissue, po, 10.2 g/kg, lung tissue, A549 tumor-bearing mice, intragastric PG–OJ extract 10.2 g/kg (6.8 g/kg elsewhere in the source), mean ± SD, n = 6, read-out: Tmax (converted)
[6] = male, BALB/c nude, mouse, lung tissue, po, 10.2 g/kg, lung tissue, oral PG–OJ extract, read-out: time to reach peak concentration
[7] = male, BALB/c nude, mouse, po, lung tissue, A549 tumor-bearing mice, intragastric PG–OJ extract 10.2 g/kg (6.8 g/kg elsewhere in the source), mean ± SD, n = 6, read-out: Cmax
[8] = male, BALB/c nude, mouse, po, lung tissue, A549 tumor-bearing mice, intragastric PG–OJ extract 10.2 g/kg (6.8 g/kg elsewhere in the source), mean ± SD, n = 6
[9] = male, BALB/c nude, mouse, po, lung tissue, A549 tumor-bearing mice, intragastric PG–OJ extract 10.2 g/kg (6.8 g/kg elsewhere in the source), mean ± SD, n = 6, read-out: T1/2
[10] = lung tissue, oral PG–OJ extract

| Compound | AUC(0–t) [3] | AUC(0–∞) [3] | Tmax [5] [h] | Cmax [7] [ng/g] | MRT last [8] [h] | half-life [9] [h] | half-life [1] [h] | Tmax [2] [h] | other results |
| --- | --- | --- | --- | --- | --- | --- | --- | --- | --- |
| 24(R)-pseudoginsenoside F11 |  |  |  |  |  |  |  |  | T1/2 (mouse, in vivo, po): 3.786 ± 0.2045 h; Tmax (mouse, in vivo, po): 0.25 ± 0 h; time to reach maximum concentration (Cmax) after administration (mouse, in vivo, po): ≤ 15 min |
| CC(C)=CCC[C@](C)(O[C@@H]1O[C@H](CO)[C@@H](O)[C@H](O)[C@H]1O)[C@H]1CC[C@]2(C)[C@@H]1[C@H](O)C[C@@H]1[C@@]3(C)CC[C@H](O)C(C)(C)[C@@H]3[C@@H](O)C[C@]12C [Ginsenoside F1] |  |  |  |  |  |  | 2.24 ± 0.241 | 4 | exposure level in lung tissue (mouse, in vivo, po): extremely low |
| CC(C)=CCC[C@](C)(O[C@@H]1O[C@H](CO)[C@@H](O)[C@H](O)[C@H]1O)[C@H]1CC[C@]2(C)[C@@H]1[C@H](O)C[C@@H]1[C@@]3(C)CC[C@H](O[C@@H]4O[C@H](CO)[C@@H](O)[C@H](O)[C@H]4O)C(C)(C)[C@@H]3CC[C@]12C [Ginsenoside F2] |  |  |  |  |  |  | 5.83 ± 0.269 | 1 | AUC(0–∞) compared with other components (mouse, in vivo, po): significantly higher than those of other components |
| CC(C)=CCC[C@](C)(O)[C@H]1CC[C@]2(C)[C@@H]1[C@H](O)C[C@@H]1[C@@]3(C)CC[C@H](O)C(C)(C)[C@@H]3[C@@H](O[C@@H]3O[C@H](CO)[C@@H](O)[C@H](O)[C@H]3O[C@@H]3O[C@H](CO)[C@@H](O)[C@H](O)[C@H]3O)C[C@]12C [Ginsenoside Rf] |  |  |  |  |  |  | 1.28 ± 0.0173 | 0.25 | time to reach maximum concentration (Cmax) after administration (mouse, in vivo, po): ≤ 15 min |
| CC(C)=CCC[C@](C)(O)[C@H]1CC[C@]2(C)[C@@H]1[C@H](O)C[C@@H]1[C@@]3(C)CC[C@H](O)C(C)(C)[C@@H]3[C@@H](O[C@@H]3O[C@H](CO)[C@@H](O)[C@H](O)[C@H]3O[C@@H]3O[C@@H](C)[C@H](O)[C@@H](O)[C@H]3O)C[C@]12C [Ginsenoside Rg2] |  |  |  |  |  |  | 3.58 ± 0.103 | 0.25 | AUC(0–∞) compared with other components (mouse, in vivo, po): significantly higher than those of other components; time to reach maximum concentration (Cmax) after administration (mouse, in vivo, po): ≤ 15 min |
| CC(C)=CCC[C@](C)(O)[C@H]1CC[C@]2(C)[C@@H]1[C@H](O)C[C@@H]1[C@@]3(C)CC[C@H](O[C@@H]4O[C@H](CO)[C@@H](O)[C@H](O)[C@H]4O[C@@H]4O[C@H](CO)[C@@H](O)[C@H](O)[C@H]4O)C(C)(C)[C@@H]3CC[C@]12C [Ginsenoside Rg3] | 1879.87 ± 53.24 ng·min/g | 14,133.43 ± 3134.88 ng/g·min |  |  |  |  |  |  | Cmax [3]: 4.75 ± 0.12 ng/g; MRT(0–t) [3]: 3.8352 ± 0.0448 h; T1/2 [3]: 39.6943 ± 9.3722 h; Tmax [3]: 0.0833 ± 0 h |

The next lines start with results.

| AUC(0–t) [3] | AUC(0–∞) [3] | Tmax [5] [h] | Cmax [7] [ng/g] | MRT last [8] [h] | half-life [9] [h] | Compound | half-life [1] [h] | Tmax [2] [h] | other results |
| --- | --- | --- | --- | --- | --- | --- | --- | --- | --- |
| 227,245.91 ± 5460.47 ng/g·min | 283,948.70 ± 17,261.40 ng/g·min | 12 | 441 ± 15.7 | 11.5 | 32.9 ± 3.15 | CC(C)=CCC[C@](C)(O[C@@H]1O[C@H](CO[C@@H]2O[C@H](CO)[C@@H](O)[C@H](O)[C@H]2O)[C@@H](O)[C@H](O)[C@H]1O)[C@H]1CC[C@]2(C)[C@@H]1[C@H](O)C[C@@H]1[C@@]3(C)CC[C@H](O[C@@H]4O[C@H](CO)[C@@H](O)[C@H](O)[C@H]4O[C@@H]4O[C@H](CO)[C@@H](O)[C@H](O)[C@H]4O)C(C)(C)[C@@H]3CC[C@]12C [Ginsenoside Rb1] |  |  | AUC(0–∞) compared with other components [4]: significantly higher than those of other components; Tmax [6]: 12 h |
| 3935.63 ± 598.40 ng·min/g | 6076.50 ± 664.68 ng·min/g |  | 7.2 ± 0.96 | 11.9 | 19.9 ± 4.38 | CC(C)=CCC[C@](C)(O[C@@H]1O[C@H](CO[C@@H]2OC[C@H](O)[C@H](O)[C@H]2O)[C@@H](O)[C@H](O)[C@H]1O)[C@H]1CC[C@]2(C)[C@@H]1[C@H](O)C[C@@H]1[C@@]3(C)CC[C@H](O[C@@H]4O[C@H](CO)[C@@H](O)[C@H](O)[C@H]4O[C@@H]4O[C@H](CO)[C@@H](O)[C@H](O)[C@H]4O)C(C)(C)[C@@H]3CC[C@]12C [Ginsenoside Rb2] |  |  |  |
| 4049.29 ± 622.84 ng·min/g | 16,689.44 ± 2585.97 ng/g·min |  | 5.92 ± 0.45 | 13.8 | 66.6 ± 8.6 | CC(C)=CCC[C@](C)(O[C@@H]1O[C@H](CO[C@@H]2OC[C@@H](O)[C@H](O)[C@H]2O)[C@@H](O)[C@H](O)[C@H]1O)[C@H]1CC[C@]2(C)[C@@H]1[C@H](O)C[C@@H]1[C@@]3(C)CC[C@H](O[C@@H]4O[C@H](CO)[C@@H](O)[C@H](O)[C@H]4O[C@@H]4O[C@H](CO)[C@@H](O)[C@H](O)[C@H]4O)C(C)(C)[C@@H]3CC[C@]12C [Ginsenoside Rb3] |  |  |  |
| 23,180.66 ± 703.80 ng/g·min | 25,129.88 ± 1611.92 ng/g·min | 12 | 43 ± 2.11 | 11.6 | 7.41 ± 1.68 | CC(C)=CCC[C@](C)(O[C@@H]1O[C@H](CO[C@@H]2O[C@@H](CO)[C@H](O)[C@H]2O)[C@@H](O)[C@H](O)[C@H]1O)[C@H]1CC[C@]2(C)[C@@H]1[C@H](O)C[C@@H]1[C@@]3(C)CC[C@H](O[C@@H]4O[C@H](CO)[C@@H](O)[C@H](O)[C@H]4O[C@@H]4O[C@H](CO)[C@@H](O)[C@H](O)[C@H]4O)C(C)(C)[C@@H]3CC[C@]12C [Ginsenoside Rc] |  |  | Tmax [6]: 12 h |
| 46,163.94 ± 1033.00 ng/g·min | 56,296.57 ± 6663.99 ng/g·min |  | 83 ± 2.11 | 11.1 | 16.2 ± 3.68 | CC(C)=CCC[C@](C)(O[C@@H]1O[C@H](CO)[C@@H](O)[C@H](O)[C@H]1O)[C@H]1CC[C@]2(C)[C@@H]1[C@H](O)C[C@@H]1[C@@]3(C)CC[C@H](O[C@@H]4O[C@H](CO)[C@@H](O)[C@H](O)[C@H]4O[C@@H]4O[C@H](CO)[C@@H](O)[C@H](O)[C@H]4O)C(C)(C)[C@@H]3CC[C@]12C [Ginsenoside Rd] |  |  | AUC(0–∞) compared with other components [4]: significantly higher than those of other components |
| 3815.68 ± 233.30 ng·min/g | 3933.20 ± 224.66 ng·min/g | 0.0833 | 132 ± 32.9 | 1.57 | 1.76 ± 0.0727 | CC(C)=CCC[C@](C)(O[C@@H]1O[C@H](CO)[C@@H](O)[C@H](O)[C@H]1O)[C@H]1CC[C@]2(C)[C@@H]1[C@H](O)C[C@@H]1[C@@]3(C)CC[C@H](O)C(C)(C)[C@@H]3[C@@H](O[C@@H]3O[C@H](CO)[C@@H](O)[C@H](O)[C@H]3O[C@@H]3O[C@@H](C)[C@H](O)[C@@H](O)[C@H]3O)C[C@]12C [Ginsenoside Re] |  |  | time to reach maximum concentration (Cmax) after administration [10]: ≤ 15 min |
| 2295.03 ± 213.32 ng·min/g | 2345.90 ± 212.68 ng·min/g | 0.25 | 50.2 ± 6.67 | 2.26 | 1.64 ± 0.0457 | CC(C)=CCC[C@](C)(O[C@@H]1O[C@H](CO)[C@@H](O)[C@H](O)[C@H]1O)[C@H]1CC[C@]2(C)[C@@H]1[C@H](O)C[C@@H]1[C@@]3(C)CC[C@H](O)C(C)(C)[C@@H]3[C@@H](O[C@@H]3O[C@H](CO)[C@@H](O)[C@H](O)[C@H]3O)C[C@]12C [Ginsenoside Rg1] |  |  | time to reach maximum concentration (Cmax) after administration [10]: ≤ 15 min |

From article PMC10819458, “Using Pharmacokinetic–Pharmacodynamic Modeling to Study the Main Active Substances of the Anticancer Effect in Mice from Panax ginseng–Ophiopogon japonicus” (Molecules, 2024)
